Measured values reported in patent publication US20210254173A1, “PREDICTIVE 7-GENE ASSAY AND PROGNOSTIC PROTEIN BIOMARKER FOR NON-SMALL CELL LUNG CANCER” (West Virginia University, priority 2018, published 2021).

Assays:
Assay type in all cases: in vivo, human
[1] = test system: SLC39A8; assay: Chemoresponse prediction: Cox proportional hazard model using SLC39A8 ΔCt values in qRT-PCR assays of NSCLC patients; conditions: prediction by high SLC39A8 expression
Description: (§1) Patient samples. All NSCLC patients were staged I, II, or IIIA at the time of diagnosis. Tumor tissues were collected in surgical resections and were snap-frozen at −80° C. until used for RNA extraction. Tumor cell content was above 50% for qRT-PCR assays. Those with missing AJCC staging information, missing histology, death within 30 days of resection or from other disease conditions were excluded from further analysis. A total of 122 NSCLC patient samples were obtained from Case Western Reserve University (CWRU) Comprehensive Cancer Center. […] The tissue collection in this study was approved by an Institutional Review Board (IRB) at each institution.
RNA extraction, and quality and concentration assessments. […] The quality and integrity of the RNA, the 28S to 18S ratio, and a visual image of the 28S and 18S bands were evaluated on the 2100 Bioanalyzer (Agilent Technologies, CA). […] The RNA concentration of each sample was assessed using a Nanodrop-1000 Spectrophotometer (NanoDrop Tech, Germany). […]
(§2) Real-time quantitative RT-PCR low-density arrays. […]
(§3) Three hundred thirty seven (337) tumor samples were analyzed with good RNA quality using TaqMan microfluidic low-density array (LDA) plates on an ABI 7900HT Fast RT-PCR instrument (Applied Biosystems).

[2] = test system: ABCC4; assay: Chemoresponse prediction: Cox proportional hazard model using ABCC4 ΔCt values in qRT-PCR assays of NSCLC patients
Description: as §1
RNA extraction, and quality and concentration assessments. Total RNA was extracted from snap-frozen tumor tissues using a RNeasy mini kit according the manufacturer's protocol (Qiagen, USA), followed by elution in 30 μl of RNase-free water and storage at −80° C. The quality and integrity of the RNA, the 28S to 18S ratio, and a visual image of the 28S and 18S bands were evaluated on the 2100 Bioanalyzer (Agilent Technologies, CA). […] The RNA concentration of each sample was assessed using a Nanodrop-1000 Spectrophotometer (NanoDrop Tech, Germany).
Generation of complementary DNA (cDNA). The reverse transcriptase polymerase chain reaction was used to convert the high-quality single-stranded RNA samples to double-stranded cDNA, using an Applied Biosystems GeneAmp® PCR 9700 machine (Foster City, Calif.). For standardization across all samples, one microgram of RNA was used to generate cDNA.
Real-time quantitative RT-PCR low-density arrays. Real-time qRT-PCR assays of independent patient cohorts of NSCLC tumor samples were used to further select biomarkers to form a multi-gene assay from prognostic genes identified from microarray data in our previous studies.
as §3

[3] = test system: FUT7; assay: Chemoresponse prediction: Cox proportional hazard model using FUT7 ΔCt values in qRT-PCR assays of NSCLC patients
Description: Patient samples. All NSCLC patients were staged I, II, or IIIA at the time of diagnosis. Tumor tissues were collected in surgical resections and were snap-frozen at −80° C. until used for RNA extraction. Tumor cell content was above 50% for qRT-PCR assays. Those with missing AJCC staging information, missing histology, death within 30 days of resection or from other disease conditions were excluded from further analysis. A total of 122 NSCLC patient samples were obtained from Case Western Reserve University (CWRU) Comprehensive Cancer Center. Total RNA of good quality was extracted from 89 tumor specimens. […]
RNA extraction, and quality and concentration assessments. […] The quality and integrity of the RNA, the 28S to 18S ratio, and a visual image of the 28S and 18S bands were evaluated on the 2100 Bioanalyzer (Agilent Technologies, CA). RNA assessed as having good quality from […] tumor samples was included for further analysis. The RNA concentration of each sample was assessed using a Nanodrop-1000 Spectrophotometer (NanoDrop Tech, Germany). […]
as §2
Three hundred thirty seven (337) tumor samples were analyzed with good RNA quality using TaqMan microfluidic low-density array (LDA) plates on an ABI 7900HT Fast RT-PCR instrument (Applied Biosystems). Total RNA samples were analyzed on an Agilent 2100 Bioanalyzer RNA 6000 Nano LabChip. […]

[4] = ABCC4 ΔCt as covariate, Cox model, NSCLC patients treated with the named agent(s)

Structure (SMILES)	Chemosensitive/resistant [1]	Hazard ratio of death from disease with 95% CI [2, 4]	Hazard ratio of recurrence with 95% CI [2, 4]	Chemosensitive/resistant ([2]; prediction by high ABCC4 expression, patients treated with the named agent(s))	Hazard ratio of death from disease with 95% CI ([3]; FUT7 ΔCt as covariate, Cox model, NSCLC patients treated with the named agent)	Chemosensitive/resistant ([3]; prediction by high FUT7 expression)
CC(=O)O[C@H]1C(=O)[C@@]2(C)[C@H]([C@H](OC(=O)c3ccccc3)[C@]3(O)C[C@H](OC(=O)[C@H](O)[C@@H](NC(=O)c4ccccc4)c4ccccc4)C(C)=C1C3(C)C)[C@]1(OC(C)=O)CO[C@@H]1C[C@@H]2O [Taxol, paclitaxel]	Chemoresistant	0.403	0.48	Chemoresistant		
Nc1nc2[nH]cc(CCc3ccc(C(=O)N[C@@H](CCC(=O)O)C(=O)O)cc3)c2c(=O)[nH]1 [Alimta, pemetrexed]	Chemoresistant					
N.N.O=C([O-])C1(C(=O)[O-])CCC1.[Pt+2] [Carboplatin, carboplatin]					1.605	Chemosensitive
